# Assay results: publication PMC12455397 (Angewandte Chemie (International Ed. in English), 2025)
# Legend:
# [1] = test system: Nrf2-regulated genes (AKR1B10, NQO1, TRXR1, HO-1) in HaCaT human keratinocytes; assay: HaCaT cell assay, Western Blotting of Nrf2-regulated proteins; assay type: cell-based; conditions: 24 h
# [2] = test system: Nrf2-regulated genes (AKR1B10, NQO1, TRXR1, HO-1) in HaCaT human keratinocytes; assay: HaCaT cell assay, RT-qPCR of Nrf2-regulated genes; assay type: cell-based; conditions: WT HaCaT, 3, 1 and 0.33 µM, 5 h, normalized to TBP
# [3] = test system: NQO1 mRNA in BEAS-2B cells; assay: qPCR-based BEAS-2B cell assay (NQO1 mRNA); parameters: species or system human; conditions: mean ± SEM, 2-4 independent experiments
# Protocol: RT-qPCR were stimulated with compounds or DMSO diluted in DMEM and incubated for 24 h. DMSO was added accordingly to highest percentage compound volume added.
# Upon 24 hour compound stimulation, the cells were trypsinized, washed, spun down and resuspended in 70 μL of ice-cold Pierce RIPA lysis buffer (Thermo Scientific) supplemented with 10 mM NaF, 1× complete protease cocktail inhibitor (Roche), and 5 IU mL-1 benzonase (Sigma), respectively. The protein concentrations were determined using the BCA protein assay kit (Thermo Scientific) and samples was equalized accordingly to the sample of lowest protein concentration. 1×XT sample buffer (Bio-Rad) and 1×XT reducing agent (Bio-Rad) were added to the samples, and lysates were denatured by boiling for 5 min at 95 °C. Denatured samples was separated by SDS-PAGE on a 4–20% Criterion TGX precast gradient gel (Bio-Rad). The gel ran initially for 20 min at 70 V and 45 min at 120 V and was then transferred onto a PVDF membrane (Bio-Rad) using a Trans-Blot Turbo transfer system. […]
# Upon 5 hour compound stimulation, RNA was extracted from the cells using the High Pure RNA Isolation Kit (Roche, 11828665001) according to the manufacturer’s instructions. […] The quality and purity of the RNAs were assessed by Nanodrop spectrometry (DeNovix DS-11). Using the TaqMan detection systems, the gene expression of HO-1 (HMOX-1), NQO1, AKR1B10, and TRXR1 was determined by real-time PCR. […] The commercially available TaqMan assay (Thermo Fischer Scientific, cat. no. 4392938) was used, and samples were analyzed in a final volume of 10 μL reaction mix containing 5 μL of master mix, 0.2 μL of RT enzyme, 2.3 μL of nuclease-free water, […] (TATA-Box Binding Protein/TBP; […]
# Hs00917067_m1, Thermo Fisher), and 2 μL of pure RNA. The samples were analyzed using a QuantStudioTM 3 real-time PCR instrument with the following program: 1 × (10 min, 48.0 °C; 10 min, 95.0 °C); 40 × (30 s, 95.0 °C; 1 min, 60.0 °C). […]
# The upregulation of NQO1 mRNA in BEAS-2B cells was measured by qPCR, as previously described.[20] […]
# [4] = test system: NLRP3 inflammasome in macrophage-derived THP-1 cells; assay: NLRP3 inflammasome / TLR4 activation in THP-1 macrophages (WB, ELISA); assay type: cell-based; conditions: 100 µM, 24 h
# [5] = test system: cGAS-STING pathway in macrophage-derived THP-1 cells; assay: cGAS-STING pathway in THP-1 macrophages (WB); assay type: cell-based; conditions: 100 µM, 24 h; cGAMP 4 µg/mL 6 h
# [6] = test system: IFN signalling in macrophage-derived THP-1 cells; assay: Type I IFN signalling after IFNβ stimulation in THP-1 macrophages (WB); assay type: cell-based; conditions: 100 µM, 24 h; IFNβ 500 U/mL 1 h
# [7] = test system: Nrf2 KO THP1 cells differentiated into macrophages; assay: RNA sequencing transcriptome analysis, Nrf2 KO THP-1 macrophages; assay type: cell-based; conditions: 12 h, CDDO-Me 0.1 µM, DMF, 24, 28 10 µM, KI-696 1 µM
# THP1 cells = assay type: cell-based; conditions: THP-1 WT, 10 and 100 µM, 48 h
# Protocol: THP1 cells were exposed to the compounds for 48 hours at 10 and 100 μM. Viability was quantified using
# propidium iodide exclusion through flow cytometry. PI-positive cells (dead or necrotic cells) were quantified
# through red fluorescence on a BD C6 Accuri flow cytometer using a 488 nm excitation wavelength and an
# emission filter of 585 nm ± 40 nm (BD Biosciences). 50,000 events were collected (n = 3 technical replicates
# per condition). The experiment was repeated twice. Data are presented as mean ± SEM (n = 4‒10).
# [8] = test system: differentiated THP1 macrophages (WT)
# human Keap1 Kelch = human Keap1 Kelch (Homo sapiens, UniProt Q14145); assay: Fluorescence polarization (FP) competition assay with Cy5-Nrf2 peptide probe
# Protocol: Fluorescence Polarization Assay
# (3 nM) and human Keap1 Kelch at 14 nM in the 1×HBSTET assay buffer, as previously.[1, 3-5] In short, the assay was performed in black flat-bottom 384-well plates (Corning Life Sciences, NY) allowing an assay volume of 30 μL/well. Proper mixing and elimination of air bubbles was ascertained by spinning down the plates and incubation for 10–15 minutes at RT before measuring FP levels on a Safire2 plate-reader (Tecan, Männedorf, Switzerland). The Ki values of the compounds were determined by dose-response experiments (12-points, 4% DMSO in all wells), where FP values were fitted to the equation Y = Bottom + (Top - Bottom)/[1 + (10HillSlope*(LogIC50-X))]; X representing the logarithmic value of compound concentration. The resulting IC50 value, together with the Kd value (the dissociation constant between probe and Keap1 Kelch, determined in a prior experiment) and Keap1 Kelch concentrations, was used to calculate the theoretical competitive inhibition constant, the Ki value.[18]
# [9] = LPS or LPS+nigericin stimulation
# [10] = WT, 12 h, CDDO-Me 0.1 µM, SFN, DMF, 24, 28 10 µM, KI-696 1 µM
# [11] = WT, 12 h, CDDO-Me 0.1 µM, SFN, DMF, 24, 28 10 µM, KI-696 1 µM, NS = not significant
# Chain of human Keap1 Kelch (Q14145 321-609): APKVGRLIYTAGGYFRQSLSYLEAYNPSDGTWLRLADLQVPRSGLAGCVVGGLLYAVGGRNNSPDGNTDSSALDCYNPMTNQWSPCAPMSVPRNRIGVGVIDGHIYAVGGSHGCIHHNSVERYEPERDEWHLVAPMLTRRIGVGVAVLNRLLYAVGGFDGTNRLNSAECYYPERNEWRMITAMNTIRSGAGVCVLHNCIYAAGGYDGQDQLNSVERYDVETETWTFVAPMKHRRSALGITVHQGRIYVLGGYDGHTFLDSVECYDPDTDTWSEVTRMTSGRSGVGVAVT
compound,measurement,setting,value
Cc1cc2c(cc1C(CC(=O)O)c1ccc3ccc(OCC(=O)NC4CCCCCC4)cc3c1)OCCO2 (stereo not shown) [Compound 28],protein levels of Nrf2-regulated genes by WB,"[1]; HaCaT, 10 µM",strong bands in WB for all tested proteins
same,relative cell potency among the six compounds (WB),"[1]; HaCaT, 10, 3, 1 µM",most potent
same,target gene mRNA expression (RT-qPCR),[2],several‐fold increases in target gene mRNA expression
same,EC50,"[3]; Homo sapiens, BEAS-2B",60.1 ± 5.7 nM
same,EC50,[3],60 nM
same,NLRP3 inflammasome activation: release of cleaved caspase-1 and cleaved IL-1β in supernatants (WB),[4],markedly decreased NLRP3 inflammasome activation
same,cleavage of gasdermin D (GSDMD) (WB),[4],prevented the cleavage of gasdermin D
same,IL-1β release (ELISA) following NLRP3 activation,[4]; LPS 100 ng/mL 3 h + nigericin 10 µM 1 h,confirmed a decrease
same,IL-1β release (ELISA) following high concentrations of LPS,[4]; LPS 2 µg/mL 6 h,no statistical difference was observed
same,expression of NLRP3 (WB),[4]; [9],markedly reduced
same,total protein levels of pro-IL-1β (WB),[4]; [9],also reduced
same,ISG15 levels (WB),[5],reduced levels
same,total STING levels and STING activation (phosphorylated STING and TBK1) (WB),[5],reduced total STING levels and STING activation
same,"IFN signalling (phosphorylated STAT1, IFIT1 protein levels) (WB)",[6],did not affect IFN signalling
same,number of up- or downregulated genes in Nrf2 KO cells,[7],266 genes
same,cell viability,THP1 cells,did not reduce cell viability
same,AKR1B10 FC,"[8]; Table S3, THP-1, 12 h","4,27 fold"
same,CASP1 FC,"[8]; Table S3, THP-1, 12 h","0,59 fold"
same,COL1A1 FC,"[8]; Table S3, THP-1, 12 h","1,40 fold"
same,COL4A1 FC,"[8]; Table S3, THP-1, 12 h","1,15 fold"
same,COL4A2 FC,"[8]; Table S3, THP-1, 12 h","1,11 fold"
same,CYP1B1 FC,"[8]; Table S3, THP-1, 12 h","1,04 fold"
same,GPX1 FC,"[8]; Table S3, THP-1, 12 h","0,62 fold"
same,GPX4 FC,"[8]; Table S3, THP-1, 12 h","1,20 fold"
same,IFNAR1 FC,"[8]; Table S3, THP-1, 12 h","0,92 fold"
same,IFNAR2 FC,"[8]; Table S3, THP-1, 12 h","0,99 fold"
same,IFNGR1 FC,"[8]; Table S3, THP-1, 12 h","0,64 fold"
same,IFNGR2 FC,"[8]; Table S3, THP-1, 12 h","0,76 fold"
same,IL1B FC,"[8]; Table S3, THP-1, 12 h","0,88 fold"
same,IRF3 FC,"[8]; Table S3, THP-1, 12 h","1,03 fold"
same,LAMB1 FC,"[8]; Table S3, THP-1, 12 h","4,94 fold"
same,LAMB4 FC,"[8]; Table S3, THP-1, 12 h","3,01 fold"
same,MMP8 FC,"[8]; Table S3, THP-1, 12 h","0,94 fold"
same,MMP9 FC,"[8]; Table S3, THP-1, 12 h","1,03 fold"
same,MMP12 FC,"[8]; Table S3, THP-1, 12 h","0,53 fold"
same,NLRP3 FC,"[8]; Table S3, THP-1, 12 h","0,79 fold"
same,NOD2 FC,"[8]; Table S3, THP-1, 12 h","0,38 fold"
same,NOXA1 FC,"[8]; Table S3, THP-1, 12 h","0,50 fold"
same,SOCS1 FC,"[8]; Table S3, THP-1, 12 h","1,95 fold"
same,SOCS3 FC,"[8]; Table S3, THP-1, 12 h","2,13 fold"
same,SOD1 FC,"[8]; Table S3, THP-1, 12 h","1,35 fold"
same,SOD2 FC,"[8]; Table S3, THP-1, 12 h","0,68 fold"
same,STAT1 FC,"[8]; Table S3, THP-1, 12 h","0,77 fold"
same,TBK1 FC,"[8]; Table S3, THP-1, 12 h","1,01 fold"
same,TLR4 FC,"[8]; Table S3, THP-1, 12 h","1,04 fold"
same,TNFRSF1B FC,"[8]; Table S3, THP-1, 12 h","1,14 fold"
same,TRAP1 FC,"[8]; Table S3, THP-1, 12 h","0,86 fold"
same,cGAS FC,"[8]; Table S3, THP-1, 12 h","1,29 fold"
same,Average FC of upregulated Nrf2-dependent genes,[8]; [10],2.5 fold
same,"number of upregulated genes (FC >2.0, p-adj <0.05)",[8]; [10],175 genes
same,GCLM fold change vs vehicle,[8]; [11],3.0 fold
same,GSR fold change vs vehicle,[8]; [11],2.0 fold
same,HMOX1 fold change vs vehicle,[8]; [11],2.4 fold
same,SRXN1 fold change vs vehicle,[8]; [11],2.4 fold
same,TXNRD1 fold change vs vehicle,[8]; [11],2.9 fold
same,NQO1 upregulation at 24 h,"[8]; WT, 24 h, 10 µM (footnote * of Figure 7c)",1.5 fold
same,Ki,"human Keap1 Kelch; Ki (FP), mean, ≥3 individual measurements, text and figures",8.8 nM
same,ligand efficiency (LE),human Keap1 Kelch; from FP Ki,0.29
